Ends that are not written are not given here. Peptide text beside a SMILES is read from it.
T1: GPR1-eYFP (human) (UniProt P46091)
T1 sequence: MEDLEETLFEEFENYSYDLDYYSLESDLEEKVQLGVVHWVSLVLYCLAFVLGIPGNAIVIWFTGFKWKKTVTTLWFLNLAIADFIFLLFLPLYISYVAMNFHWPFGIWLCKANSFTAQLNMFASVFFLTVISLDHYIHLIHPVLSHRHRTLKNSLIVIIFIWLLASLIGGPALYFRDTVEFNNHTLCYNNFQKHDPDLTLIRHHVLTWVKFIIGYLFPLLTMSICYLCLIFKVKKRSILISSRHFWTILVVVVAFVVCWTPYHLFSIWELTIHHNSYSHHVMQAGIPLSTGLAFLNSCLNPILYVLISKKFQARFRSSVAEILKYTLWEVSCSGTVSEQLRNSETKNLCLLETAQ


Assays:
[1] = biological target: T2, GPR1 (Homo sapiens, UniProt P46091); assay: cell-based; details: for Emax: COS-7
T2 construct: expressed in transfected cells; host or cells: COS-7, transient
Method: Arrestin recruitment was characterized by measuring the bioluminescence resonance energy transfer (BRET) ratio between luciferase-tagged arrestin3 and either GPR1-eYFP or CMKLR1-eYFP as described previously. In brief, COS-7 cells in 75 cm^2 cell culture flasks were transiently transfected overnight with 7800 ng GPR1-eYFP or CMKLR1-eYFP in pVitro2 and 200 ng Rluc8-Arr3 in pcDNA3 using MetafectenePro according to the manufacturer’s protocol. […] For kinetic measurements, cells were stimulated with agonist in buffer or buffer alone, and fluorescence was measured for 20 min using a Tecan Infinite M 200 Reader (Tecan, Männerdorf, Switzerland) using the filter sets Green1 (YFP emission, luminescence 520–570 nm) and Blue1 (luciferase luminescence 370–480 nm). For concentration–response curves, cells were stimulated with agonist or blank, and luminescence was measured after 10 min. BRET signal was calculated as the ratio of fluorescence divided by luminescence, netBRET signal was calculated by subtracting the BRET signal of unstimulated wells from the respective samples.

[2] = biological target: T1, GPR1-eYFP (human)

T2 sequence (P32120 whole entry partner, one chain of several): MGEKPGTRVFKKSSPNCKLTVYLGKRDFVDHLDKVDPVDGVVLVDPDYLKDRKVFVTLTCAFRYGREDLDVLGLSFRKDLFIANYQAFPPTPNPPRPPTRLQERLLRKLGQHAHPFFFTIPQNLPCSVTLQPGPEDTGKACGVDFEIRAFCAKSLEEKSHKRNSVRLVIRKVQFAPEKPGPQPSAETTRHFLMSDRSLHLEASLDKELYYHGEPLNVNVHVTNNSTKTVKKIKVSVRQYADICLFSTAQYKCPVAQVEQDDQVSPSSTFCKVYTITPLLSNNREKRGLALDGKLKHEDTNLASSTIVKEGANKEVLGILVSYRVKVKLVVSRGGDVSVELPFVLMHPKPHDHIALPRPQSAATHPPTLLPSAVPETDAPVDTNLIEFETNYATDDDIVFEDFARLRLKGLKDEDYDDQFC

EC50 of arrestin3 recruitment to GPR1-eYFP (BRET with Rluc8-Arr3, COS-7 cells) [2] [nM] | Molecule | EC50 [1] [nM] | Emax [1] [%]
4 | YFPGQFAF [Chem^149-156] |  | 
> 1000 | QFYSFFPAG [scr2C9] |  | 
> 1000 | PGQFAFS [Chem^151-157] |  | 
22 | FPGQFAFS [Chem^150-157] |  | 

Second part, the molecule before the results:

Molecule | EC50 of arrestin3 recruitment to GPR1-eYFP (BRET with Rluc8-Arr3, COS-7 cells) [2] [nM] | EC50 [1] [nM] | Emax [1] [%]
C[C@@H]1NC(=O)[C@H](Cc2ccccc2)NC(=O)[C@H](CCC(N)=O)NC(=O)[C@H](NC(=O)[C@@H]2CCCN2C(=O)[C@H](Cc2ccccc2)NC(=O)[C@@H](N)Cc2ccc(O)cc2)CCSSC[C@@H](C(=O)O)NC(=O)[C@H](Cc2ccccc2)NC1=O [[4-9]-c(chemerin-9)] (HELM PEPTIDE1{Y.F.P.[O=C([C@@H](CCS[*:3])N[*:1])[*:2]].Q.F.A.F.C}$PEPTIDE1,PEPTIDE1,4:R3-9:R3$$$V2.0) |  | 3.3 | 
FPGQFAFS [Chem^150−157] |  | 22.4 | 87 ± 8
QRAGEDPHSFYFPGQFAFS [Chem^139−157] |  | 3.09 | 94 ± 7
QRAGEDPHSFYFPGQFAF [Chem^139−156] |  | 2.95 | 99 ± 9
YFPGQFAF [Chem^149−156] |  | 3.98 | 110 ± 16
Chem^149-155 (chemerin-7) (peptide) | > 1000 |  | 
QRAGEDPHSFYFPGQFAFS [Chem^139-157] | 3.1 |  | 
QRAGEDPHSFYFPGQFAF [Chem^139-156] | 2.9 |  | 
